Laboratory results: patent US10421761B2, “Compounds for kinase modulation, and indications therefor” (Plexxikon Inc., priority 2013, dated 2019)
Like-named read-outs stand apart in the source and are kept apart here.

System: B9 cells

Compound: CCCS(=O)(=O)Nc1ccc(F)c(C(=O)c2c[nH]c3ncc(-c4ccc(Cl)cc4)cc23)c1F [vemurafenib]
- probe 1416811_s_at response, Ctla2a /// Ctla2b (cytotoxic T lymphocyte-associated protein 2 alpha /// cytotoxic T lymphocyte-associated protein 2 beta): 1.92
- probe 1452352_at response, Ctla2b (cytotoxic T lymphocyte-associated protein 2 beta): 2.37
- expression of gene probe 1416454_s_at (Acta2) (B9 cells, Repl. 1): 0.23
- expression of gene probe 1416612_at (Cyp1b1) (B9 cells, Repl. 1): 0.19
- expression of gene probe 1418240_at (Gbp2) (B9 cells, Repl. 1): 0.30
- expression of gene probe 1418497_at (Fgf13) (B9 cells, Repl. 1): 0.39
- expression of gene probe 1419089_at (Timp3) (B9 cells, Repl. 1): 0.26
- expression of gene probe 1427183_at (Efemp1) (B9 cells, Repl. 1): 0.30
- expression of gene probe 1427747_a_at (Lcn2) (B9 cells, Repl. 1): 0.36
- expression of gene probe 1435906_x_at (Gbp2) (B9 cells, Repl. 1): 0.21
- expression of gene probe 1438931_s_at (LOC100047324 /// Sesn1) (B9 cells, Repl. 1): 0.35
- expression of gene probe 1438988_x_at (Hn1) (B9 cells, Repl. 1): 0.26
- expression of gene probe 1440147_at (Lgi2) (B9 cells, Repl. 1): 0.34
- expression of gene probe 1448734_at (Cp) (B9 cells, Repl. 1): 0.31
- expression of gene probe 1449227_at (Ch25h) (B9 cells, Repl. 1): 0.25
- expression of gene probe 1449335_at (Timp3) (B9 cells, Repl. 1): 0.24
- expression of gene probe 1449340_at (Sostdc1) (B9 cells, Repl. 1): 0.17
- expression of gene probe 1449815_a_at (Ssbp2) (B9 cells, Repl. 1): 0.38
- expression of gene probe 1450618_a_at (Sprr2a) (B9 cells, Repl. 1): 0.36
- expression of gene probe 1460250_at (Sostdc1) (B9 cells, Repl. 1): 0.23
- expression of gene probe 1416454_s_at (Acta2) (B9 cells, Repl. 2): 0.20
- expression of gene probe 1416612_at (Cyp1b1) (B9 cells, Repl. 2): 0.16
- expression of gene probe 1418240_at (Gbp2) (B9 cells, Repl. 2): 0.28
- expression of gene probe 1418497_at (Fgf13) (B9 cells, Repl. 2): 0.38
- expression of gene probe 1419089_at (Timp3) (B9 cells, Repl. 2): 0.31
- expression of gene probe 1427183_at (Efemp1) (B9 cells, Repl. 2): 0.37
- expression of gene probe 1427747_a_at (Lcn2) (B9 cells, Repl. 2): 0.35
- expression of gene probe 1435906_x_at (Gbp2) (B9 cells, Repl. 2): 0.30
- expression of gene probe 1438931_s_at (LOC100047324 /// Sesn1) (B9 cells, Repl. 2): 0.33
- expression of gene probe 1438988_x_at (Hn1) (B9 cells, Repl. 2): 0.27
- expression of gene probe 1440147_at (Lgi2) (B9 cells, Repl. 2): 0.38
- expression of gene probe 1448734_at (Cp) (B9 cells, Repl. 2): 0.30
- expression of gene probe 1449227_at (Ch25h) (B9 cells, Repl. 2): 0.29
- expression of gene probe 1449335_at (Timp3) (B9 cells, Repl. 2): 0.36
- expression of gene probe 1449340_at (Sostdc1) (B9 cells, Repl. 2): 0.20
- expression of gene probe 1449815_a_at (Ssbp2) (B9 cells, Repl. 2): 0.38
- expression of gene probe 1450618_a_at (Sprr2a) (B9 cells, Repl. 2): 0.41
- expression of gene probe 1460250_at (Sostdc1) (B9 cells, Repl. 2): 0.20
- probe 1415828_a_at response, Serp1 (stress-associated endoplasmic reticulum protein 1) (Repl. 1, B9 cells): 2.05
- probe 1415936_at response, Bcar3 (breast cancer anti-estrogen resistance 3) (Repl. 1, B9 cells): 2.21
- probe 1416129_at response, Errfi1 (ERBB receptor feedback inhibitor 1) (Repl. 1, B9 cells): 3.31
- probe 1416246_a_at response, Coro1a (coronin, actin binding protein 1A) (Repl. 1, B9 cells): 1.90
- probe 1416325_at response, Crisp 1 (cysteine-rich secretory protein 1) (Repl. 1, B9 cells): 5.15
- probe 1416401_at response, Cd82 (CD82 antigen) (Repl. 1, B9 cells): 2.87
- probe 1416488_at response, Ccng2 (cyclin G2) (Repl. 1, B9 cells): 2.23
- probe 1416527_at response, Rab32 (RAB32, member RAS oncogene family) (Repl. 1, B9 cells): 0.42
- probe 1416811_s_at response, Ctla2a /// Ctla2b (cytotoxic T lymphocyte-associated protein 2 alpha /// cytotoxic T lymphocyte-associated protein 2 beta) (Repl. 1, B9 cells): 2.28
- probe 1417065_at response, Egr1 (early growth response 1) (Repl. 1, B9 cells): 4.13
- probe 1417130_s_at response, Angptl4 (angiopoietin-like 4) (Repl. 1, B9 cells): 3.10
- probe 1417328_at response, Ercc1 (excision repair cross-complementing rodent repair deficiency, complementation group 1) (Repl. 1, B9 cells): 2.20
- probe 1417488_at response, Fosl1 (fos-like antigen 1) (Repl. 1, B9 cells): 2.09
- probe 1417494_a_at response, Cp (ceruloplasmin) (Repl. 1, B9 cells): 0.39
- probe 1417495_x_at response, Cp (ceruloplasmin) (Repl. 1, B9 cells): 0.48
- probe 1417533_a_at response, Itgb5 (integrin beta 5) (Repl. 1, B9 cells): 0.50
- probe 1417625_s_at response, Cxcr7 (chemokine (C-X-C motif) receptor 7) (Repl. 1, B9 cells): 2.03
- probe 1417677_at response, Opn3 (opsin 3) (Repl. 1, B9 cells): 2.18
- probe 1417812_a_at response, Lamb3 (laminin, beta 3) (Repl. 1, B9 cells): 2.60
- probe 1417837_at response, Phlda2 (pleckstrin homology-like domain, family A, member 2) (Repl. 1, B9 cells): 2.26
- probe 1417902_at response, Slc19a2 (solute carrier family 19 (thiamine transporter), member 2) (Repl. 1, B9 cells): 2.00
- probe 1417962_s_at response, Ghr (growth hormone receptor) (Repl. 1, B9 cells): 2.19
- probe 1418349_at response, Hbegf (heparin-binding EGF-like growth factor) (Repl. 1, B9 cells): 3.29
- probe 1418350_at response, Hbegf (heparin-binding EGF-like growth factor) (Repl. 1, B9 cells): 2.66
- probe 1418538_at response, Kdelr3 (KDEL (Lys-Asp-Glu-Leu) endoplasmic reticulum protein retention receptor 3) (Repl. 1, B9 cells): 2.08
- probe 1418539_a_at response, Ptpre (protein tyrosine phosphatase, receptor type, E) (Repl. 1, B9 cells): 1.94
- probe 1419149_at response, Serpine1 (serine (or cysteine) peptidase inhibitor, clade E, member 1) (Repl. 1, B9 cells): 2.13
- probe 1419188_s_at response, Ccl27a /// Gm13306 (chemokine (C-C motif) ligand 27A /// predicted gene 13306) (Repl. 1, B9 cells): 2.62
- probe 1419317_x_at response, Lce3c (late cornified envelope 3C) (Repl. 1, B9 cells): 2.53
- probe 1419322_at response, Fgd6 (FYVE, RhoGEF and PH domain containing 6) (Repl. 1, B9 cells): 2.60
- probe 1419529_at response, Il23a (interleukin 23, alpha subunit p19) (Repl. 1, B9 cells): 2.84
- probe 1419671_a_at response, Il17rc (interleukin 17 receptor C) (Repl. 1, B9 cells): 0.49
- probe 1419722_at response, Klk8 (kallikrein related-peptidase 8) (Repl. 1, B9 cells): 2.02
- probe 1419816_s_at response, Errfi1 (ERBB receptor feedback inhibitor 1) (Repl. 1, B9 cells): 3.87
- probe 1420352_at response, Prss22 (protease, serine, 22) (Repl. 1, B9 cells): 3.07
- probe 1420380_at response, Cc12 (chemokine (C-C motif) ligand 2) (Repl. 1, B9 cells): 0.37
- probe 1420407_at response, Ltb4r1 (leukotriene B4 receptor 1) (Repl. 1, B9 cells): 2.29
- probe 1420450_at response, Mmp10 (matrix metallopeptidase 10) (Repl. 1, B9 cells): 3.42
- probe 1420537_at response, Kctd4 (potassium channel tetramerisation domain containing 4) (Repl. 1, B9 cells): 2.36
- probe 1420760_s_at response, Ndrg1 (N-myc downstream regulated gene 1) (Repl. 1, B9 cells): 1.90
- probe 1420913_at response, Slco2a1 (solute carrier organic anion transporter family, member 2a1) (Repl. 1, B9 cells): 1.92
- probe 1420955_at response, Vsnl1 (visinin-like 1) (Repl. 1, B9 cells): 0.38
- probe 1421134_at response, Areg (amphiregulin) (Repl. 1, B9 cells): 4.28
- probe 1421269_at response, Ugcg (UDP-glucose ceramide glucosyltransferase) (Repl. 1, B9 cells): 2.46
- probe 1421279_at response, Lamc2 (laminin, gamma 2) (Repl. 1, B9 cells): 2.23
- probe 1421403_at response, Pi15 (peptidase inhibitor 15) (Repl. 1, B9 cells): 2.04
- probe 1421551_s_at response, Ifi202b (interferon activated gene 202B) (Repl. 1, B9 cells): 3.58
- probe 1421668_x_at response, Speer3 (spermatogenesis associated glutamate (E)-rich protein 3) (Repl. 1, B9 cells): 2.74
- probe 1421679_a_at response, Cdkn1a (cyclin-dependent kinase inhibitor 1A (P21)) (Repl. 1, B9 cells): 4.27
- probe 1421888_x_at response, Aplp2 (amyloid beta (A4) precursor-like protein 2) (Repl. 1, B9 cells): 0.65
- probe 1421943_at response, Tgfa (transforming growth factor alpha) (Repl. 1, B9 cells): 1.93
- probe 1422028_a_at response, Ets1 (E26 avian leukemia oncogene 1, 5′ domain) (Repl. 1, B9 cells): 2.13
- probe 1422101_at response, Tnfrsf23 (tumor necrosis factor receptor superfamily, member 23) (Repl. 1, B9 cells): 2.04
- probe 1422138_at response, Plau (plasminogen activator, urokinase) (Repl. 1, B9 cells): 2.73
- probe 1422139_at response, Plau (plasminogen activator, urokinase) (Repl. 1, B9 cells): 2.45
- probe 1422222_at response, Ivl (involucrin) (Repl. 1, B9 cells): 2.50
- probe 1422240_s_at response, Sprr2h (small proline-rich protein 2H) (Repl. 1, B9 cells): 1.95
- probe 1422273_at response, Mmp1b (matrix metallopeptidase 1b (interstitial collagenase)) (Repl. 1, B9 cells): 3.30
- probe 1422324_a_at response, Pthlh (parathyroid hormone-like peptide) (Repl. 1, B9 cells): 2.11
- probe 1422537_a_at response, Id2 (inhibitor of DNA binding 2) (Repl. 1, B9 cells): 0.53
- probe 1422771_at response, Smad6 (MAD homolog 6 (Drosophila)) (Repl. 1, B9 cells): 0.46
- probe 1422924_at response, Tnfsf9 (tumor necrosis factor (ligand) superfamily, member 9) (Repl. 1, B9 cells): 2.01
- probe 1423017_a_at response, Il1rn (interleukin 1 receptor antagonist) (Repl. 1, B9 cells): 2.63
- probe 1423543_at response, Swap70 (SWA-70 protein) (Repl. 1, B9 cells): 1.88
- probe 1423597_at response, Atp8a1 (ATPase, aminophospholipid transporter (APLT), class I, type 8A, member 1) (Repl. 1, B9 cells): 2.02
- probe 1423635_at response, Bmp2 (bone morphogenetic protein 2) (Repl. 1, B9 cells): 2.41
- probe 1423690_s_at response, Gpsm1 (G-protein signalling modulator 1 (AGS3-like, C. elegans)) (Repl. 1, B9 cells): 3.37
- probe 1423933_a_at response, 1600029D21Rik (RIKEN cDNA 1600029D21 gene) (Repl. 1, B9 cells): 2.06
- probe 1424022_at response, Osgin1 (oxidative stress induced growth inhibitor 1) (Repl. 1, B9 cells): 2.27
- probe 1424090_at response, Sdcbp2 (syndecan binding protein (syntenin) 2) (Repl. 1, B9 cells): 4.08
- probe 1424306_at response, Elovl4 (elongation of very long chain fatty acids (FEN1/Elo2, SUR4/Elo3, yeast)-like 4) (Repl. 1, B9 cells): 2.51
- probe 1424383_at response, Tmem51 (transmembrane protein 51) (Repl. 1, B9 cells): 2.58
- probe 1424471_at response, Rapgef3 (Rap guanine nucleotide exchange factor (GEF) 3) (Repl. 1, B9 cells): 2.18
- probe 1424638_at response, Cdkn1a (cyclin-dependent kinase inhibitor 1A (P21)) (Repl. 1, B9 cells): 2.76
- probe 1424783_a_at response, Ugt1a1 /// Ugt1a10 /// Ugt1a2 /// Ugt1a5 /// Ugt1a6a /// Ugt1a6b /// Ugt1aTc /// Ugt1a9 (UDP glucuronosyltransferase 1 family) (Repl. 1, B9 cells): 0.39
- probe 1425452_s_at response, Fam84a (family with sequence similarity 84, member A) (Repl. 1, B9 cells): 2.41
- probe 1425660_at response, Btbd3 (BTB (POZ) domain containing 3) (Repl. 1, B9 cells): 2.08
- probe 1426037_a_at response, Rgs16 (regulator of G-protein signaling 16) (Repl. 1, B9 cells): 3.19
- probe 1426181_a_at response, I124 (interleukin 24) (Repl. 1, B9 cells): 5.52
- probe 1426260_a_at response, Ugt1a1 /// Ugt1a10 /// Ugt1a2 /// Ugt1a5 /// Ugt1a6a /// Ugt1a6b /// Ugt1aTc /// Ugt1a9 (UDP glucuronosyltransferase 1 family) (Repl. 1, B9 cells): 0.39
